Format in all cases: cell-based
Test [1] concerns BaF3 KRAS G12C/Y96D cells. Put plainly: MTT assay for cell viability in 96 well cell culture plate. The settings on record: Mus musculus, 48 h treatment. For orientation: Tetrazolium assays rely on reduction of a dye to a coloured formazan, in cell work by metabolically active cells.
For another test, the target named is T1, HRAS G12V (Homo sapiens, UniProt P01112, G12V).
T1 construct: K, N and HRAS G12V (full length) was cloned with Xho I and Bgl Ito LgBit; expressed in transfected cells
Put plainly: NanoBit assay for RAS activation (LgBiT-RAS / SmBiT-CRAF RBD). The settings on record: 2 h with inhibitor in serum free DMEM. The procedure:
(§1) N-terminal LgBiT and C-terminal SmBiT construct was purchased from Promega and K, N and HRAS G12V (full length) was cloned with Xho I and Bgl Ito LgBit and CRAF Ras binding domain (1-149) was cloned with EcoRI and Bgl II to SmBit. For transfections, 1 μg or 2 μg of (12 well/6 well) plasmids were transfected into cells with 0.5 mM of PEI reagent in 100 μl or 200 μl PBS. One day after transfection, cells were harvested and seeded into 96 well white plates, half area (Greiner). After an additional day the medium was changed to serum free DMEM and the cells were incubated for 2 h with inhibitor. NanoGlo assay was performed according to the manufacturer's instructions. The luminescence was measured using Tecan infinite (Tecan).

In a further test the target is T2, NRAS G12V (Homo sapiens, UniProt P01111, G12V).
T2 construct: K, N and HRAS G12V (full length) was cloned with Xho I and Bgl Ito LgBit; expressed in transfected cells
Described as above. The settings on record: 2 h with inhibitor in serum free DMEM. The procedure: as §1

A further test has as its target T3, KRAS G12V (Homo sapiens, UniProt P01116, G12V).
T3 construct: K, N and HRAS G12V (full length) was cloned with Xho I and Bgl Ito LgBit; expressed in transfected cells
The test is described as above. The settings on record: 2 h with inhibitor in serum free DMEM. As to the method: as §1

The test system of the next test is BaF3 KRAS G12C cells. Put plainly: MTT assay for cell viability in 96 well cell culture plate. The settings on record: Mus musculus, 48 h treatment.
Test [2] deals with KRAS mutants (G12V, G12C, G12D, G12C/Y96D, G13C, G13D, G13S, Q61K and Q61R). Nature of the test: NanoBiT assay for RAS GTP-loading in HeLa cells, LgBit-KRAS mutants and SmBit-CRAF-RBD. The settings on record: 2 h in serum-free DMEM, normalized to DMSO. As to the method:
NanoBiT assay for the RAS GTP-loading was performed in HeLa cells transfected with LgBit-KRAS mutants and SmBit-CRAF-RBD. Cells were treated with Mitoxantrone HCl for 2 h in serum-free DMEM. After incubation, the substrate for NanoLuc was added, and the luminescence was measured in a multiplate reader. Data were normalized to cells transfected with the indicated mutant and exposed to DMSO for 2 h. DMSO-treated cells were set as 1. The bars represent mean±SEM from 3 independent experiments.

A further test relates to sNF96.2 cells. Put plainly: RASOpathie-Model, MTT assay for cell viability in 96 well cell culture plate. The settings on record: 48 h treatment. As to the method:
FIG. 5: RASOpathie-Model of Mitoxantrone HCl; MTT assay for cell viability in 96 well cell culture plate
Cells were treated with Mitoxantrone HCl for 48 h and cell viability was evaluated by MTT assay. DMSO-treated cells were set as 1. The results shown are mean±SEM from 3 independent experiments.

The next test has as its system NCI-H358 cells. Nature of the test: Soft agar colony formation assay with MTT readout. The settings on record: Homo sapiens, growth in soft agar, colonies stained with MTT, absorbance 570 nm, 3 independent experiments. The procedure:
(§2) Metabolic activity was quantified using Cell Proliferation Kit I (Roche, Basel, Switzerland). Cells were seeded in 96-well cell culture plates, using 5000 cells per well for NCI-H358 cells. After treatment, 10 μl of MTT solution was added and incubated for 2 h in CO2 incubator. Then 100 μl of solubilization buffer was added to each well and incubated overnight in CO2 incubator. Cell viability, assessed by the amount of metabolized MTT, was quantified by measuring absorbance at 570 nm.
(§3) MTT assay for the growth of different tumor cell lines with RAS mutations in soft agar with Mitoxantrone hydrochloride. Shown are data from three independent experiments. NCI-H358, H358, H2122, ASPC-1, HCT-116, T24 and HT1080 cells were used for the soft agar colony formation assay. After the treatment with Mitoxantrone HCl, the colonies were stained with MTT and the value was quantified by measuring absorbance at 570 nm after solubilization. The results represent mean±SEM from 3 independent experiments.

A further test relates to HT1080 cells. Put plainly: Soft agar colony formation assay with MTT readout. The settings on record: Homo sapiens, HT-1080; growth in soft agar, colonies stained with MTT, absorbance 570 nm, 3 independent experiments. The procedure: as §2, §3
The test system of the next test is ASPC1 cells. Put plainly: Soft agar colony formation assay with MTT readout. The settings on record: Homo sapiens, growth in soft agar, colonies stained with MTT, absorbance 570 nm, 3 independent experiments. The procedure:
as §2, §3

The next test deals with NCI-H2122 cells. Nature of the test: Soft agar colony formation assay with MTT readout. The settings on record: Homo sapiens, growth in soft agar, colonies stained with MTT, absorbance 570 nm, 3 independent experiments. The procedure: as §2, §3
In a further test the test system is T24 cells. Put plainly: Soft agar colony formation assay with MTT readout. The settings on record: Homo sapiens; growth in soft agar, colonies stained with MTT, absorbance 570 nm, 3 independent experiments. The procedure:
as §2, §3

The subject of another test is HCT-116 cells. Put plainly: Soft agar colony formation assay with MTT readout. The settings on record: Homo sapiens, growth in soft agar, colonies stained with MTT, absorbance 570 nm, 3 independent experiments. As to the method:
as §2, §3

The results in this text go back to patent US20250339387A1, “MITOXANTHRONE DERIVATIVES AS RAS INHIBITORS” (KHR Biotec GmbH, priority 2022, published 2025).

T2 sequence (P01111 whole entry G12V): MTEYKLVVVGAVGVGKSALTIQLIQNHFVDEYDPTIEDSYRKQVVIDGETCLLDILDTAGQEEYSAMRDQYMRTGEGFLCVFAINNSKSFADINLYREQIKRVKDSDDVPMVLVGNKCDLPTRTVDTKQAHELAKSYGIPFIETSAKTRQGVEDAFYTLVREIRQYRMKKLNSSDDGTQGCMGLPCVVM

As a reminder, the IC50 is the midpoint of a concentration-inhibition curve. As to `Cl.Cl.O=C1c2c(O)ccc(O)c2C(=O)c2c(NCCNCCO)ccc(NCCNCCO)c21` [Mitoxantrone HCl, 1,4-dihydroxy-5,8-bis({2-[(2-hydroxy-ethyl)amino]ethyl}amino)-9,10-anthrachinone dihydrochloride], the IC50 was 24 µM in test [1]; 24.2 µM with BaF3 KRAS G12C cells; 3.71 µM in the test with sNF96.2 cells; 1.5 µM in the test on NCI-H358 cells; 0.13 µM with HT1080 cells; 0.6 µM in the test with ASPC1 cells. Also, the figures for the IC50 in the test with NCI-H2122 cells, in the test on T24 cells and in the test on HCT-116 cells were 0.25 µM, 0.43 µM and 0.27 µM, respectively. The “RAS activation, H-RAS (NanoBit luminescence)” value on HRAS G12V is recorded as “inhibits”. Also, the “RAS activation, N-RAS (NanoBit luminescence)” value on NRAS G12V is “inhibits”. The “RAS activation, K-RAS (NanoBit luminescence)” value on KRAS G12V is on record as “inhibits”. For the same compound, the “RAS activation / GTP-loading of KRAS mutants (NanoBiT luminescence)” value in test [2] is listed as “inhibits”.
